row,Compound,melting point [°C]
1,"Cn1c(=O)cc(CCc2cccc(Cl)c2)c2cc(C(O)(c3ccc(Cl)cc3)c3cccnc3)ccc21 (stereo not shown) [Example B14, 4-[2-(3-chlorophenyl)ethyl]-6-[(4-chlorophenyl)hydroxy-3-pyridinylmethyl]-1-methyl-2(1H)-quinolinone]",115
2,"O=c1cc(Oc2ccccc2)c2cc(C(c3ccc(Cl)cc3)n3ccnc3)ccc2[nH]1 (racemic) [Example B1, (±)-6-[(4-chlorophenyl)-1H-imidazol-1-ylmethyl]-4-phenoxy-2(1H)-quinolinone]",233.3
3,"Cn1cnnc1C(O)(c1ccc(Cl)cc1)c1ccc2c(c1)c(CCc1cccc(Cl)c1)cc(=O)n2C (stereo not shown) [Example B20, 4-[2-(3-chlorophenyl)ethyl]-6-[(4-chlorophenyl)hydroxy(4-methyl-4H-1,2,4-triazol-3-yl)methyl]-1-methyl-2(1H)-quinolinone]",200
4,"CN(C(=O)c1cc(=O)n(C)c2ccc(C(O)(c3ccc(Cl)cc3)c3cncn3C)cc12)c1cccc(Cl)c1 (stereo not shown) [Example B11, N-(3-chlorophenyl)-6-[(4-chlorophenyl)hydroxy(1-methyl-1H-imidazol-5-yl)methyl]-1,2-dihydro-N,1-dimethyl-2-oxo-4-quinolinecarboxamide]",218
5,"Cn1cncc1C(N)(c1ccc(Cl)cc1)c1ccc2c(c1)c(CCc1cccc(Cl)c1)cc(=O)n2C (stereo not shown) [Example B3, 6-[amino(4-chlorophenyl)(1-methyl-1H-imidazol-5-yl)methyl]-4-[2-(3-chlorophenyl)ethyl]-1-methyl-2(1H)-quinolinone]",165
6,"O=c1[nH]c2ccc(C(c3ccc(Cl)cc3)n3ccnc3-c3ccccc3)cc2c(Oc2cccc(Cl)c2)c1CO (stereo not shown) [Example B5, 4-(3-chlorophenoxy)-6-[(4-chlorophenyl)(2-phenyl-1H-imidazol-1-yl)methyl]-3-(hydroxymethyl)-2(1H)-quinolinone]",246
7,"Cn1cncc1C(O)(c1ccc(Cl)cc1)c1ccc2c(c1)c(CCc1cccc(Cl)c1)cc(=O)n2C (stereo not shown) [Example B2, 4-[2-(3-chlorophenyl)ethyl]-6-[(4-chlorophenyl)hydroxy(1-methyl-1H-imidazol-5-yl)methyl]-1-methyl-2(1H)-quinolinone]",190
8,"CCOC(=O)c1c(Oc2cccc(Cl)c2)c2cc(C(c3ccc(Cl)cc3)c3cnc(-c4ccccc4)[nH]3)ccc2[nH]c1=O (stereo not shown) [Example B4 F2, 4-(3-chlorophenoxy)-6-[(4-chlorophenyl)(2-phenyl-1H-imidazol-5-yl)methyl]-1,2-dihydro-2-oxo-3-quinolinecarboxylic acid ethyl ester]",189
9,"Cn1c(=O)cc(CCc2cccc(Cl)c2)c2cc(C(N)(c3ccc(Cl)cc3)c3cccnc3)ccc21 (stereo not shown) [Example B15, 6-[amino(4-chlorophenyl)-3-pyridinylmethyl]-4-[2-(3-chlorophenyl)ethyl]-1-methyl-2(1H)-quinolinone]",90
10,"Cc1cccc(N(C)C(=O)c2cc(=O)n(C)c3ccc(C(O)(c4ccc(Cl)cc4)c4cncn4C)cc23)c1 (stereo not shown) [Example B12, 6-[(4-chlorophenyl)hydroxy(1-methyl-1H-imidazol-5-yl)methyl]-1,2-dihydro-N,1-dimethyl-N-(3-methylphenyl)-2-oxo-4-quinolinecarboxamide]",185
